Data reported in paper PMC6442109, “Novel thienopyrimidine derivatives as dual EGFR and VEGFR-2 inhibitors: design, synthesis, anticancer activity and effect on cell cycle profile” (Journal of Enzyme Inhibition and Medicinal Chemistry, 2019).
Where two headings read alike, the source gives them in different places.

Assays:
MCF-7 cell line = test: MTT anticancer activity assay against MCF-7; details: for IC50: Homo sapiens, MCF7, 48 h, read-out: IC50 on MCF-7 cell line
EGFR [1] = target: T1, EGFR (Homo sapiens, UniProt P00533); test: In vitro EGFR kinase inhibitory assay (Kinase-Glo luminescence kit)
Procedure: All samples and controls were tested in triplicate. 5× Kinase assay buffer, ATP and 50× PTK substrate were thawed. The master mixture was constructed (25 µL per well), consequently 25 µL was added to every well. About 5 µL inhibitor solution was added to each well labeled as “Test Inhibitor” while for the “Positive control” and “Blank”, 5 µL of the buffer solution without inhibitor (Inhibitor buffer) was added.
About 3 mL of 1× kinase assay buffer was developed through mixing 600 µL of 5× kinase assay buffer with 2400 µL water. About 20 µL of 1× kinase assay buffer was added to the wells designated as “Blank”. EGFR enzyme was thawed on ice. Consequent to the first thaw, the tube containing enzyme was shortly spun so as to recover full content of the tube. The amount of EGFR required for the assay was calculated then the enzyme was diluted to 1 ng/µL with 1× kinase assay buffer. Reaction was initiated via addition of 20 µL of diluted EGFR enzyme to the wells designated “Positive Control” and “Test Inhibitor Control” then incubation at 30 °C for 40 min. Kinase-Glo Max reagent was thawed. After the 40 min reaction, 50 µL of Kinase-Glo Max reagent was added to each well. Plates were covered with aluminum foil and incubated at room temperature for 15 min. Finally, luminescence was measured using the microplate Robonik P2000 ELISA Reader (India).

[2] = target: T2, recombinant human VEGFR-2/KDR (Homo sapiens, UniProt P35968); test: In vitro VEGFR-2 kinase inhibitory assay (ELISA kit); type: biochemical; details: mean of three experiments ± SD
T2 construct: purchased #7788
Procedure: About 10 µL of 10 mM ATP was added to 1.25 mL 6 µM substrate peptide followed by dilution of the mixture with distilled water to 2.50 mL to make 2× ATP/substrate cocktail ([ATP] = 40 µM, [substrate] = 3 µm). The enzyme was immediately transferred from –80 °C to ice and was allowed to thaw on ice. Microcentrifuge was performed briefly at 4 °C and returned immediately to ice. […] About 0.6 mL of DTT/Kinase buffer was transferred to each enzyme tube to make 4× reaction mixture. […] About 25 µL of 2× ATP/substrate cocktail was added to 25 µL/well pre-incubated reaction mixture/compound. Reaction plate was incubated at room temperature for 30 min. Then, 50 µL/well stop buffer (50 mM EDTA, pH 8) was added to stop the reaction. […] About 100 µL/well primary antibody was added and incubated at room temperature for 60 min followed by washing three times with 200 µL/well PBS/T.
Appropriate dilution of HRP labeled secondary antibody in PBS/T was prepared with 1% BSA (1:500 dilution for anti-mouse IgG or 1:1000 for anti-rabbit IgG). About 100 µL/well secondary antibody solution was added and incubated at room temperature for 30 min then washed five times with 200 µL/well PBS/T followed by addition of 100 µL/well 3,3′,5,5′-tetramethylbenzidine (TMB) substrate and incubation at room temperature for 15 min and finally addition of 100 µL/well of stop solution and mix well. The absorbance was read at 450 nm with a microtiter plate reader. The values of % activity versus a series of compound concentrations (0.01 µM–0.1 µM–1 µM–10 µM) was then plotted using non-linear regression analysis of sigmoidal dose-response curve.

[3] = tested on: MCF-10A (the human mammary epithelial cell line); test: MTT cytotoxicity on normal mammary epithelial cell line; details: for IC50: Homo sapiens, MCF-10A, read-out: IC50 on normal mammary epithelial cell line (MCF-10A); for Selectivity index: MCF-10A versus MCF-7 tumor cell line
MCF-7 cells [4] = test: Cell cycle analysis, propidium iodide flow cytometry; type: cell-based, human; details: 24 h
Procedure: Cell cycle were carried out using propidium iodide flow cytometry kit (Abcam, ab139418) according to the manufacturer’s instructions. The MCF-7 cells were treated with 0.66 µM of compound 5f for 24 h. Then, the cells were washed twice with ice-cold PBS, centrifuged and fixed using ice-cold 66% (v/v) ethanol, washed with PBS, re-suspended with 0.1 mg/mL RNase and stained with 200 µL propidium iodide (PI). Finally, cells were analyzed by flow cytometry. The cell cycle distributions were calculated using Cell-Quest software (Becton Dickinson). An interference with the normal cell cycle distribution resulted upon exposure of MCF-7 cells to this compound as indicated.

MCF-7 cells [5] = test: Annexin V-FITC/PI apoptosis detection; type: cell-based, human; details: MCF-7, 0.66 µM, 24 h
Procedure: Apoptosis was evaluated utilizing Annexin V-FITC/PI apoptosis detection kit (Biovision, Mountain View, CA #K101-25) according to the manufacturer’s instructions after staining the cells with Annexin V fluorescein isothiocyanate (FITC) and counterstaining with propidium iodide (PI).
The cells then were centrifuged and in case of adherent cells, cells were gently trypsinized and washed once with serum-containing media followed by resuspension in 500 µL of binding buffer. About 5 µL of Annexin V-FITC and 5 µL of (PI […]) were added and incubated at room temperature for 5 min in the dark. Analyses were carried out using flow cytometer (Ex = 488 nm; Em = 530 nm) using FITC signal detector (usually FL1) and PI staining by the phycoerythrin emission signal detector (usually FL2).

EGFR [6] = target: T1, EGFR; details: Figure 1 compounds I–VII; cited from earlier work
VEGFR-2 = details: Figure 1 compounds I–VII; cited from earlier work

T1 sequence (P00533 25-1210): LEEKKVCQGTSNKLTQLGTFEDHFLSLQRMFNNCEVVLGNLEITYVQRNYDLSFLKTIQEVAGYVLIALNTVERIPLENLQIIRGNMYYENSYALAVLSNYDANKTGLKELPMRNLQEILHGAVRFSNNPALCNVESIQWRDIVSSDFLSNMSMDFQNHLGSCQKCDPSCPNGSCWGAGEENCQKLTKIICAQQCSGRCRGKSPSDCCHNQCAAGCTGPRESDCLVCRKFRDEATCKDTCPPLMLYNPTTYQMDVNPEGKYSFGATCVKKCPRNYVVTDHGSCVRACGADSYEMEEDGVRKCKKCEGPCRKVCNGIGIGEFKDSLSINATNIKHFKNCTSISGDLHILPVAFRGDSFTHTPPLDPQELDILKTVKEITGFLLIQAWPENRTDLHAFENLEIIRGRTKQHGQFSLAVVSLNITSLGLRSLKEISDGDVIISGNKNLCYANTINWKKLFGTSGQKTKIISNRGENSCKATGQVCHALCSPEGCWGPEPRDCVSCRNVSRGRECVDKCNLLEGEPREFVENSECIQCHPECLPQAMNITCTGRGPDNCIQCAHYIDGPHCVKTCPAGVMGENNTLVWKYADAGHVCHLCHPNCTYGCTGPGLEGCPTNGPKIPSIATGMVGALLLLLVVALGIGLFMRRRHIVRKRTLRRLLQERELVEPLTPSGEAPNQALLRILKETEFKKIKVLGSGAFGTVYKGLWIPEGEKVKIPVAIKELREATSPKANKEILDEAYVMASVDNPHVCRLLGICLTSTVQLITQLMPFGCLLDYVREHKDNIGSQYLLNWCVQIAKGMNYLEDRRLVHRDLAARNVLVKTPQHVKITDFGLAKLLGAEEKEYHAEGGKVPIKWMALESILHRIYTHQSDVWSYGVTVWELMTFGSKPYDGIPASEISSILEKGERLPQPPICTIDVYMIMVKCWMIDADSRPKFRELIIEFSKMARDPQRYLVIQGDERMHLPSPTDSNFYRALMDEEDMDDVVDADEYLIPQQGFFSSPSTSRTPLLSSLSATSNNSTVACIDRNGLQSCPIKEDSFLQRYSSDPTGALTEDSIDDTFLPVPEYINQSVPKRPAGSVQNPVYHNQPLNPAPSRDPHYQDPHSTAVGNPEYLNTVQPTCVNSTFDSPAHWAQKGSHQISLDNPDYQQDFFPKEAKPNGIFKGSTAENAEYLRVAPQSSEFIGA
T2 sequence (P35968 20-1356): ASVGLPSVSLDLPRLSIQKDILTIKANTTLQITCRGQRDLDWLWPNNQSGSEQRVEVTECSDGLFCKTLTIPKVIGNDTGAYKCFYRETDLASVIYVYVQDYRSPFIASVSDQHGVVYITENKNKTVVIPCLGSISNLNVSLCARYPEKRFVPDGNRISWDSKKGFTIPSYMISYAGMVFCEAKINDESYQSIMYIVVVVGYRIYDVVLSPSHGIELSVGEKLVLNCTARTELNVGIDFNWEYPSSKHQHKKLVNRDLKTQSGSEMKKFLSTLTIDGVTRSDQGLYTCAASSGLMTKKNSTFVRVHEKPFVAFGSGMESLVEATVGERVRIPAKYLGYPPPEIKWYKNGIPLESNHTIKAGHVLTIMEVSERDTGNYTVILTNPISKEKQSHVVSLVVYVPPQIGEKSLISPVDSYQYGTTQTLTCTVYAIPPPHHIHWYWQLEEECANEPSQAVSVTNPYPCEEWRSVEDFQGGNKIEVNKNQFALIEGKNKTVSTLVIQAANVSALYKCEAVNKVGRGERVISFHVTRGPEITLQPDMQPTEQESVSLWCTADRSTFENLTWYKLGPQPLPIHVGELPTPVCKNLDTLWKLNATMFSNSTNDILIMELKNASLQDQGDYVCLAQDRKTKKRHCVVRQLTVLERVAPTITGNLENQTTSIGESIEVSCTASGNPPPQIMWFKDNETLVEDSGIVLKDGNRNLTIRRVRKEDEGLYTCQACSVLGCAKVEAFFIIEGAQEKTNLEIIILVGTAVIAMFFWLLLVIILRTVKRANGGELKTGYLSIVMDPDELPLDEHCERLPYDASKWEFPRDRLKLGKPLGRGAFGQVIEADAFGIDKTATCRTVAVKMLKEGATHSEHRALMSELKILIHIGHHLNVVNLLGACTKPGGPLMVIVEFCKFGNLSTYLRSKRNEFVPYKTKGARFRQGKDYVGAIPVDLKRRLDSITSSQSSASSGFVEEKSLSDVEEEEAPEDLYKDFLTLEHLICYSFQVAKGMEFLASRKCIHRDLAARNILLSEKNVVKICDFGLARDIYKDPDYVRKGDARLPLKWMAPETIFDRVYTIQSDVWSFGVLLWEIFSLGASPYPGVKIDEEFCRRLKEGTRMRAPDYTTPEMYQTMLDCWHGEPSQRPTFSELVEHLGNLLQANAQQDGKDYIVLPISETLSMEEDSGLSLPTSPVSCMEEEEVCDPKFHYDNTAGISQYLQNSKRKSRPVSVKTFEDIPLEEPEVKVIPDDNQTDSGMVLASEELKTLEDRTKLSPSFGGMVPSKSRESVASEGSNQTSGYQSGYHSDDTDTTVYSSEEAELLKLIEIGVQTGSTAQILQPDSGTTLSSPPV

| Structure (SMILES) | IC50 (MCF-7 cell line) | melting point | IC50 (EGFR [1]) | further results |
| --- | --- | --- | --- | --- |
| NS(=O)(=O)c1ccc(Nc2ncnc3sc4c(c23)CCCCC4)cc1 [Compound 4a, 4-((6,7,8,9-Tetrahydro-5H-cyclohepta[4,5]thieno[2,3-d]pyrimidin-4-yl)amino)benzenesulfonamide] | 39800 ± 4110 nM | 271 to 272 °C |  |  |
| O=S(=O)(Nc1ncccn1)c1ccc(Nc2ncnc3sc4c(c23)CCCCC4)cc1 [Compound 4b, N-(Pyrimidin-2-yl)-4-((6,7,8,9-tetrahydro-5H-cyclohepta[4,5]thieno[2,3-d]pyrimidin-4-yl)amino)benzenesulfonamide] | 7120 ± 550 nM | 243 to 245 °C |  |  |
| Cc1ccnc(NS(=O)(=O)c2ccc(Nc3ncnc4sc5c(c34)CCCCC5)cc2)n1 [Compound 4c, N-(4-Methylpyrimidin-2-yl)-4-((6,7,8,9-tetrahydro-5H-cyclohepta[4,5]thieno[2,3-d]pyrimidin-4-yl)amino)benzenesulfonamide] | 11000 ± 1240 nM | 260 to 262 °C |  |  |
| Nc1cccc(Oc2ncnc3sc4c(c23)CCCCC4)c1 [Compound 5a, 3-((6,7,8,9-Tetrahydro-5H-cyclohepta[4,5]thieno[2,3-d]pyrimidin-4-yl)oxy)aniline] | 1980 ± 210 nM | 179 to 180 °C | 70 ± 3 nM | IC50 [2]: 1710 ± 62 nM |
| Nc1ccc(Oc2ncnc3sc4c(c23)CCCCC4)cc1 [Compound 5b, 4-((6,7,8,9-Tetrahydro-5H-cyclohepta[4,5]thieno[2,3-d]pyrimidin-4-yl)oxy)aniline] | 1470 ± 110 nM | > 300 °C | 42 ± 2 nM | folds more potent than lapatinib, EGFR inhibitory activity (EGFR [1]): 1.24 folds; IC50 [2]: 510 ± 16 nM; IC50 [3]: 72700 ± 3980 nM; Selectivity index [3]: 49.5 |
| Brc1ccc(Oc2ncnc3sc4c(c23)CCCCC4)cc1 [Compound 5c, 4-(4-Bromophenoxy)-6,7,8,9-tetrahydro-5H-cyclohepta[4,5]thieno[2,3-d]pyrimidine] | 6650 ± 410 nM | 135 to 136 °C |  |  |
| Clc1ccccc1Oc1ncnc2sc3c(c12)CCCCC3 [Compound 5d, 4-(2-Chlorophenoxy)-6,7,8,9-tetrahydro-5H-cyclohepta[4,5]thieno[2,3-d]pyrimidine] | 1340 ± 70 nM | > 300 °C | 70 ± 4 nM | IC50 [2]: 740 ± 25 nM |
| Clc1ccc(Oc2ncnc3sc4c(c23)CCCCC4)cc1 [Compound 5e, 4-(4-Chlorophenoxy)-6,7,8,9-tetrahydro-5H-cyclohepta[4,5]thieno[2,3-d]pyrimidine] | 2760 ± 330 nM | 115 to 116 °C | 69 ± 3 nM | IC50 [2]: 340 ± 13 nM |
| Cc1cc(Oc2ncnc3sc4c(c23)CCCCC4)ccc1Cl [Compound 5f, 4-(4-Chloro-3-methylphenoxy)-6,7,8,9-tetrahydro-5H-cyclohepta[4,5]thieno[2,3-d]pyrimidine] | 660 ± 50 nM |  | 28 ± 3 nM | folds more potent than doxorubicin, anticancer activity (MCF-7 cell line; MCF-7): 4.64 folds; folds more potent than erlotinib, anticancer activity (MCF-7 cell line; MCF-7): 1.73 folds; folds more potent than erlotinib, EGFR inhibitory activity (EGFR [1]): 1.18 folds; %G0–G1 (MCF-7 cells [4]; MCF-7, 0.66 µM): 34.19%; %G2/M (MCF-7 cells [4]; MCF-7, 0.66 µM): 32.65%; %Pre-G1 (MCF-7 cells [4]; MCF-7, 0.66 µM): 17.58%; %S (MCF-7 cells [4]; MCF-7, 0.66 µM): 33.16%; increase in percentage of cells at G2/M phase compared to control (MCF-7 cells [4]; MCF-7, IC50 concentration): 4.75 folds; increase in percentage of cells at pre-G1 phase compared to control (MCF-7 cells [4]; MCF-7, IC50 concentration): 11.80 folds; Apoptosis %Total (MCF-7 cells [5]): 17.58%; increase in annexin-V positive cells (early apoptosis) more than control (MCF-7 cells [5]): 6.07 folds; increase in late apoptotic cells more than control (MCF-7 cells [5]): about 24.66 folds; increase in necrotic cells more than control (MCF-7 cells [5]): ~12.48 folds; Apoptosis %Early (MCF-7 cells [5]; lower right quadrant): 5.34%; Necrosis (MCF-7 cells [5]; upper left quadrant): 2.87%; Apoptosis %Late (MCF-7 cells [5]; upper right quadrant): 9.37%; IC50 [2]: 1230 ± 28 nM; IC50 [3]: 153000 ± 7570 nM; Selectivity index [3]: 232.1 |
| Fc1ccc(Oc2ncnc3sc4c(c23)CCCCC4)cc1 [Compound 5g, 4-(4-Fluorophenoxy)-6,7,8,9-tetrahydro-5H-cyclohepta[4,5]thieno[2,3-d]pyrimidine] | 1230 ± 40 nM | > 300 °C | 200 ± 11 nM |  |
| Cc1ccccc1Oc1ncnc2sc3c(c12)CCCCC3 [Compound 5h, 4-(o-Tolyloxy)-6,7,8,9-tetrahydro-5H-cyclohepta[4,5]thieno[2,3-d]pyrimidine] | 87400 ± 5400 nM | > 300 °C |  |  |
| Cc1ccc(Oc2ncnc3sc4c(c23)CCCCC4)cc1 [Compound 5i, 4-(p-Tolyloxy)-6,7,8,9-tetrahydro-5H-cyclohepta[4,5]thieno[2,3-d]pyrimidine] | 21100 ± 2700 nM | > 300 °C |  |  |
| COc1ccc(Oc2ncnc3sc4c(c23)CCCCC4)cc1 [Compound 5j, 4-(4-Methoxyphenoxy)-6,7,8,9-tetrahydro-5H-cyclohepta[4,5]thieno[2,3-d]pyrimidine] | 5010 ± 310 nM | > 300 °C |  |  |
| O=[N+]([O-])c1ccc(Oc2ncnc3sc4c(c23)CCCCC4)cc1 [Compound 5k, 4-(4-Nitrophenoxy)-6,7,8,9-tetrahydro-5H-cyclohepta[4,5]thieno[2,3-d]pyrimidine] | 2760 ± 190 nM | 166 to 169 °C | 460 ± 18 nM |  |
| COc1cccc2c1C(=O)c1c(O)c3c(c(O)c1C2=O)C[C@@](O)(C(=O)CO)C[C@@H]3O[C@H]1C[C@H](N)[C@H](O)[C@H](C)O1 [Doxorubicin, reference compound] | 3060 ± 190 nM |  |  | IC50 [3]: 27600 ± 1550 nM |
| C#Cc1cccc(Nc2ncnc3cc(OCCOC)c(OCCOC)cc23)c1 [Erlotinib, reference compound] | 1140 ± 50 nM |  |  | IC50 [3]: 69400 ± 4240 nM |
| CCOC(=O)Nc1ccc(Nc2ncnc3cc(OC)c(OC)cc23)cc1Cl [III] |  |  |  | IC50 (EGFR [6]): 900 nM |
| COC(=O)Nc1ccc(Nc2ncnc3cc(OC)c(OC)cc23)cc1 [II] |  |  |  | IC50 (VEGFR-2): 5800 nM |
| COc1cc2nc(Cl)nc(Nc3ccc(S(=O)(=O)Nc4nccs4)cc3)c2cc1OC [IV] |  |  |  | IC50 (VEGFR-2): 7790 nM |
| COc1cc2ncnc(Nc3ccc(Br)cc3F)c2cc1OC [I] |  |  |  | IC50 (VEGFR-2): 1650 nM |
| O=C(Nc1cccc(Br)c1)Nc1ccc(Oc2ncnc3sc4c(c23)CCCC4)cc1Cl [VII] |  |  |  | IC50 (VEGFR-2): 15 nM |
| COc1cc2nc(Cl)nc(Nc3ccc(C(N)=O)cc3)c2cc1OC [VI] |  |  |  | IC50 (VEGFR-2): 1170 nM |
| COc1cc2nc(Cl)nc(Nc3ccc(S(N)(=O)=O)cc3)c2cc1OC [V] |  |  |  | IC50 (VEGFR-2): 1020 nM |
